# Data reported in patent publication US5736533A, “Bacterial inhibition with an oligosaccharide compound” (Neose Technologies, Inc., priority 1995, dated 1998).
# “And” between values parts separate entries of the source, which are not always exact repeats. Equal entries are not always repeated. Where two headings read alike, the source gives them in different places.
# Tests used:
# [1] = tested on: H. influenzae (strain 46519); test: inhibition of adherence of H. influenzae (strain 46519) to epithelial cells; assay type: cell-based; settings: Haemophilus influenzae, Epithelial cell, read-out: IC50 [mean (SD)]
# Excerpt: (§1) A method similar to that of Rostand, K. and Esko, (1993) J. Biol. Chem. 268 pp 24053-3, which studied the binding of radiolabelled P. aeruginosa to CHO cells was used to test for the binding inhibition of oligosaccharide compounds. For the studies described herein, S. pneumoniae (strains R-6, P70, and other clinical respiratory isolates) were labelled by culture in lysine-deficient tryptic soy broth containing ^3 H-lysine. The tryptic soy broth was made deficient in lysine by pre-treating it with lysine decarboxylase from E. coli. The bacteria were cultured for 4-5 hours, at which point the culture was in exponential growth. The bacteria were harvested and washed in Leibovitz L-15 Medium supplemented with 0.2% low-endotoxin bovine serum albumin. The bacteria were diluted to approximately 3×10^8 /mL, and then mixed 1:1 with either L-15-BSA or with various compounds to be tested. The bacterial mixtures were incubated at room temperature, with gentle agitation on an orbital shaker. After 10-15 min, samples of the bacterial mixtures were transferred to the surface of a confluent monolayer of cultured epithelial cells in a 96-well polystyrene plate. The cells most commonly used were the Wong-Kilbourne derivative of Chang conjunctiva. The human nasopharyngeal cell line Detroit 562, and the human lung cell line A549 were also used. The bacteria were incubated with the cells for 30 min with gentle agitation, at room temperature. The unbound bacteria were washed away with PBS containing 0.2% bovine serum albumin. Scintillant solution was added to the wells, and the plate was put in a microplate scintillation counter for quantitation of bound bacteria.
# (§2) Adhesion of H. influenzae to epithelial cells was performed with the same protocol with the following modifications: The bacteria were cultured overnight in lysine-deficient Haemophilus test media. The bacteria were incubated with the cells at a concentration near 10^7 /mL for 60 min.
# (§3) Using the testing protocol described in Example 2, four strains of bacteria were tested for binding inhibition by different oligosaccharide compounds.
# [2] = tested on: H. influenzae (strain 39689); test: inhibition of adherence of H. influenzae (strain 39689) to epithelial cells; assay type: cell-based; settings: Haemophilus influenzae, Epithelial cell, read-out: IC50 [mean (SD)]
# Excerpt: as §1, §2, §3
# S. pneumoniae = test: inhibition of adherence of S. pneumoniae to respiratory epithelial cells; assay type: cell-based; settings: Streptococcus pneumoniae
# S. pneumoniae strain AII [3] = test: treatment of rabbits pre-colonized with S. pneumoniae with adherence-reversing oligosaccharide; assay type: in vivo, New Zealand white rabbits
# Procedure: S. pneumonaie strain AII were administered to New Zealand white rabbits by tracheal instillation. All rabbits were sick at 24 h, with indications of pneumonia. After 24 h oligosaccharide (LNnT) or control (saline) was administered intratracheally. After an additional 24 h lung lavage colonies were counted as described in Example 3.
# Escherichia coli C600 = settings: Rosenstein et al (1992); cited from earlier work
# [4] = tested on: Pseudomonas aeruginosa M35; settings: Rosenstein et al (1992); isolate from cystic fibrosis patients; cited from earlier work
# S. pneumoniae strain AII [5] = test: colonization of rabbit lungs with S. pneumoniae in the presence of an adherence-inhibitory oligosaccharide; assay type: in vivo, New Zealand white rabbits; settings: 100 μM
# Excerpt: Rabbits S. pneumoniae strain AII were mixed with oligosacchardies and administered to New Zealand white rabbits by tracheal instillation, and lung lavage colonies were counted at the indicated time by the method described in Saukkonen, et al., 1991, J. Exp. Med. 173:1143-9.
# [6] = tested on: Burkholderia (Pseudomonas) cepacia; test: inhibition of adherence of Burkholderia (Pseudomonas) cepacia to respiratory epithelial cells; assay type: cell-based
# Excerpt: as §1, §3
# Pseudomonas aeruginosa = settings: Ramphal et al (1991); cited from earlier work
# [7] = tested on: immunoglobulin E-binding protein; settings: Feizi et al Biochemistry 1994; cited from earlier work
# Escherichia coli = settings: Ginsburg et al U.S. Pat. No. 5,225,330; cited from earlier work
# Streptococcus pneumoniae = settings: Andersson et al J. Exp. Med. (1983); cited from earlier work
# Mycoplasma pneumoniae = settings: Ginsburg et al U.S. Pat. No. 5,225,330, Table I; cited from earlier work
# [8] = A549, read-out: IC50 [mean (SD)], Monovalent, A549 human lung carcinoma, activated with IL1
# [9] = Epithelial cell, read-out: IC50 [mean (SD)], Monovalent, Chang human conjunctival carcinoma
# [10] = HUVEC, read-out: IC50 [mean (SD)], Monovalent, HUVEC activated with TNFα or thrombin
# [11] = experiment 1, inoculum 5 × 10^5 bacteria, intratracheal, 4 day lavage
# [12] = experiment 2, inoculum 5 × 10^5 bacteria, intratracheal, 4 day lavage
# [13] = experiment 3, inoculum 5 × 10^7 bacteria, 24 h lavage
# [14] = Burkholderia, Calu 3 cells, read-out: IC50 [mean (SD)]
# [15] = Calu-3, read-out: IC50 [mean (SD)], Monovalent, CaLu-3 human lung carcinoma
# [16] = Epithelial cell, read-out: IC50 [mean (SD)], Monovalent, Det-562 human nasopharyngeal carcinoma
compound,measurement,setting,value
"CC(=O)N[C@H]1[C@H](O[C@H]2[C@@H](O)[C@@H](CO)O[C@@H](O[C@H]3[C@H](O)[C@@H](O)C(O)O[C@@H]3CO)[C@@H]2O)O[C@H](CO)[C@H](O)[C@@H]1O (stereo partly drawn) [Ga1NAc β1-3 Ga1β1-4 Glc, GalNAcβ1-3-Galβ1-4-Glc]",IC50,[1],4200 µM
same,IC50,[2],10600 µM
same,IC50,S. pneumoniae; [8],85 µM
same,IC50,S. pneumoniae; [9],> 6000 µM
same,IC50,S. pneumoniae; [10],70 µM
"CC(=O)N[C@H]1[C@H](O[C@H]2[C@@H](O)[C@@H](CO)O[C@@H](O[C@H]3[C@H](O)[C@@H](O)C(O)O[C@@H]3CO)[C@@H]2O)O[C@H](CO)[C@@H](O[C@@H]2O[C@H](CO)[C@H](O)[C@H](O[C@@H]3O[C@H](CO)[C@H](O)[C@H](O)[C@H]3NC(C)=O)[C@H]2O)[C@@H]1O (stereo partly drawn) [Ga1NAc β1-3 LNnT, GalNAcβ1-3-Galβ1-4-GlcNAcβ1-3-Galβ1-4-Glc]",IC50,[1],7800 µM
same,IC50,[2],> 10000 µM
same,IC50,S. pneumoniae; [8],80 µM
same,IC50,S. pneumoniae; [10],75 µM
"CC(=O)N[C@H]1[C@H](O[C@H]2[C@@H](O)[C@@H](CO)O[C@@H](O[C@H]3[C@H](O)[C@@H](O)C(O)O[C@@H]3CO)[C@@H]2O)O[C@H](CO)[C@@H](O[C@@H]2O[C@H](CO)[C@H](O)[C@H](O)[C@H]2O)[C@@H]1O (stereo partly drawn) [LNnT, Galβ1-4-GlcNAcβ1-3-Galβ1-4-Glc]",condition of treated rabbits,S. pneumoniae strain AII [3]; at 48 h,healthy
same,CFU (lung lavage),"S. pneumoniae strain AII [3]; inoculum 10^5 bacteria, 100 μM intratracheal, lavage 24 h after oligosaccharide treatment and 48 h after bacterial instillation",0 CFU
same,binding activity,Escherichia coli C600,high binding activity
same,binding activity,[4],high binding activity
same,IC50,[1],> 14000 µM
same,CFU (lung lavage),"S. pneumoniae strain AII [5]; experiment 1, inoculum 5 × 10^5 bacteria, intratracheal, 24 h lavage, 2 rabbits/group, one value per rabbit",8.7 × 10^2 CFU (colonies/ml lavage fluid) and 4.7 × 10^3 CFU (colonies/ml lavage fluid)
same,CFU (lung lavage),S. pneumoniae strain AII [5]; [11],< 10 CFU (colonies/ml lavage fluid)
same,CFU (lung lavage),S. pneumoniae strain AII [5]; [12],0 CFU (colonies/ml lavage fluid)
same,CFU (lung lavage),S. pneumoniae strain AII [5]; [13],0 CFU (colonies/ml lavage fluid)
same,CFU (lung lavage),"S. pneumoniae strain AII [5]; experiment 4, inoculum 10^5 bacteria, intratracheal, 24 h lavage",1.1 × 10^3 CFU (colonies/ml lavage fluid) and 1.4 × 10^3 CFU (colonies/ml lavage fluid)
same,IC50,[2],> 14000 µM
same,IC50,[6]; [14],5600 µM
same,IC50,S. pneumoniae; [8],95 µM
same,IC50,S. pneumoniae; [15],> 16000 µM
same,IC50,S. pneumoniae; [9],8000 µM
same,IC50,S. pneumoniae; [16],7000 µM
same,IC50,S. pneumoniae; [10],52 µM
"CC(=O)N[C@H]1[C@H](O[C@H]2[C@@H](O)[C@@H](CO)O[C@@H](O[C@H]3[C@H](O)[C@@H](O)C(O)O[C@@H]3CO)[C@@H]2O)O[C@H](CO)[C@@H](O[C@@H]2O[C@H](CO[C@]3(C(=O)O)C[C@H](O)[C@@H](NC(C)=O)[C@H]([C@H](O)[C@H](O)CO)O3)[C@H](O)[C@H](O)[C@H]2O)[C@@H]1O (stereo partly drawn) [LSTc, NeuAcα2-6-Galβ1-4-GlcNAcβ1-3-Galβ1-4-Glc]",activity in the direct adhesion assay,Pseudomonas aeruginosa,no activity
same,binding activity,Escherichia coli C600,no activity
same,binding activity,[4],no activity
same,CFU (lung lavage),S. pneumoniae strain AII [5]; [11],< 10 CFU (colonies/ml lavage fluid)
same,CFU (lung lavage),S. pneumoniae strain AII [5]; [12],0 CFU (colonies/ml lavage fluid)
same,CFU (lung lavage),S. pneumoniae strain AII [5]; [13],0 CFU (colonies/ml lavage fluid)
same,IC50,[2],> 10000 µM
same,IC50,[6]; [14],1000 µM
same,IC50,"[6]; first table (P. cepacia), CaLu-3 lung carcinoma, read-out: IC50",1000 µM
same,binding by immunoglobulin E-binding protein,[7],not bound or is only negligibly bound
same,IC50,"S. pneumoniae; A549, first table, A549 lung carcinoma, activated with IL1",100 µM
same,IC50,S. pneumoniae; [8],69 µM
same,IC50,"S. pneumoniae; Calu-3, first table, CaLu-3 lung carcinoma",4400 µM
same,IC50,S. pneumoniae; [15],4400 µM
same,IC50,"S. pneumoniae; Epithelial cell, first table, 1° lung: rat tracheal primary epithelium",400 µM
same,IC50,"S. pneumoniae; Epithelial cell, first table, CHANG cells",1500 µM
same,IC50,"S. pneumoniae; Epithelial cell, first table, Det-562 nasopharyngeal carcinoma",5400 µM
same,IC50,"S. pneumoniae; Epithelial cell, read-out: IC50 [mean (SD)], Monovalent, 1° lung: rat trachea epithelial monolayer (primary)",250 µM
same,IC50,S. pneumoniae; [9],1400 µM
same,IC50,S. pneumoniae; [16],4000 µM
same,IC50,"S. pneumoniae; FaDu, first table, FaDu nasopharyngeal carcinoma",4000 µM
same,IC50,"S. pneumoniae; FaDu, read-out: IC50 [mean (SD)], Monovalent, FaDu human nasopharyngeal carcinoma",4500 µM
same,IC50,"S. pneumoniae; HUVEC, first table, HUVEC activated with TNFα or thrombin",100 µM
same,IC50,S. pneumoniae; [10],69 µM
"CC(=O)N[C@H]1[C@H](O[C@H]2[C@@H](O)[C@@H](CO)O[C@@H](O[C@H]3[C@H](O)[C@@H](O)C(O)O[C@@H]3CO)[C@@H]2O)O[C@H](CO)[C@@H](O[C@@H]2O[C@H](CO)[C@H](O)[C@H](O[C@]3(C(=O)O)C[C@H](O)[C@@H](NC(C)=O)[C@H]([C@H](O)[C@H](O)CO)O3)[C@H]2O)[C@@H]1O (stereo partly drawn) [LSTd, NeuAcα2-3-Galβ1-4-GlcNAcβ1-3-Galβ1-4-Glc]",IC50,S. pneumoniae; [8],95 µM
same,IC50,S. pneumoniae; [9],600 µM
same,IC50,S. pneumoniae; [10],90 µM
"CC(=O)N[C@H]1[C@H](O[C@H]2[C@@H](O)[C@@H](CO)O[C@@H](O[C@H]3[C@H](O)[C@@H](O)C(O)O[C@@H]3CO)[C@@H]2O)O[C@H](CO)[C@@H](O)[C@@H]1O[C@@H]1O[C@H](CO)[C@H](O)[C@H](O[C@]2(C(=O)O)C[C@H](O)[C@@H](NC(C)=O)[C@H]([C@H](O)[C@H](O)CO)O2)[C@H]1O (stereo partly drawn) [NeuAcα2-3-Galβ1-3-GlcNAcβ1-3-Galβ1-4-Glc, reference compound]",binding by immunoglobulin E-binding protein,[7],strongly bound
N-glycolylsialoparagloboside,inhibition,Escherichia coli,inhibition
NeuAcα2-3Galβ1-4-GlcNAcβ1-3-Galβ1-4-Glc--Cer [compound 3],binding inhibition,Streptococcus pneumoniae,no effect
sialylparagoboside,binding inhibition,Mycoplasma pneumoniae,no activity
